Measured values published in patent publication US20240165135A1, “COMPOSITIONS AND METHODS FOR THE TREATMENT OF CANCER” (The State of Israel, Ministry of Agriculture & Rural …, priority 2021, published 2024).
Marks after values point to notes of the source that are not given here.

Key:
Format in all cases: cell-based, Human
A172 cells [1] = assay: Apoptosis assay, Annexin V-FITC and PI, FACS, A172; conditions: 48 hours, F4-SM 10 μg/mL, F5-SM 10 μg/mL, Doxo 0.5 μg/mL
Protocol: Apoptosis assay—Apoptosis for the A172 cell line was assessed using MEBCYTO Apoptosis Kit with Annexin V-FITC and PI (MBL, Enco, 4700). Staining was carried out according to manufacturer's instructions. In brief, cells were seeded in a 6-well TC plate, at a density of 4×10^5 cells in 2 mL of SFM per well. 24 hours following seeding, cells were treated with the indicated treatments in complete medium for 48 hours. Following incubation, cells were harvested using trypsin and centrifuged for 5 minutes at 1600 rpm. Cell pellets were resuspended and washed twice with 1 mL of PBS. The cells in each sample were resuspended in 85 μL of Annexin binding buffer. Cells were stained using 10 μL of Annexin V-FITC solution and 5 μL of propidium iodide (PI) working solution followed by incubation in the dark at room temperature for 15 minutes. Then 400 μL of Annexin V binding buffer was added to each tube and flow cytometry was performed using a Gallios flow cytometer (FACS). Cells were considered apoptotic if they were Annexin V+/PI− (early apoptosis) or Annexin V+/PI+ (late apoptosis). Live cells were defined as Annexin V−/PI−, and Annexin V−/PI+ as necrosis.

U87 GBM cells = assay: XTT cell viability assay on U87; conditions: 48 hours; Doxorubicin up to 50 μg/mL
Protocol: Cell cultures—Human glioblastoma A172 (ATCC®CRL-1620™) was cultured in DMEM (01-055-1A, Biological Industries, Israel) and U87MG (U87; ATCC®HTB-14™) in EMEM (01-058-1A; Biological Industries, Israel). Both media were supplemented with 10% fetal bovine serum (FBS, 04-127-1A, Biological Industries, Israel), 1% Pen-Strep, 1% L-Glutamine and 0.02% plasmocin (i.e., complete medium). Cells were incubated at 37° C. in a humidified atmosphere containing 5% CO2—95% air. Serum free media (SFM) was composed of DMEM/F12 (01-170-1A; Biological Industries, Israel), including all the supplements above except for FBS. Neurosphere media for A172 was composed of SFM with 2% B-27; Neurosphere media for U87 was serum-free EMEM without B27. For Glioblastoma stem cells (GSCs) cultures all human materials were used in accordance with the policies of the Henry Ford Hospital Institutional Review Board. Generation of GSCs from fresh GBM specimens and their characterization have been recently described. […]
Cell viability assays—Cells were seeded in 96-well plates at density of 2×10^4 per well (100 μL/well) in SFM (for A172) or complete medium (for U87) and were incubated at 37° C. overnight to allow attachment. […] Absorbance was recorded by a Synergy H1 hybrid reader photometer (BioTek) at 490 nm with 650 nm of reference wavelength. […]

A172 cells [2] = assay: Cell cycle analysis, PI staining, FACS, A172; conditions: 24 hours; SM 10 μg/mL, Doxo 0.5 μg/mL; control 10.2%
Protocol: Cell cycle analysis—A172 cells were seeded in 6-well TC plate at a concentration of 4×10^5 cells in 2 mL of SFM per well. Following 24 hours incubation, cells were treated with indicated treatments in complete medium for 24 hours. Methanol and doxorubicin were used as negative and positive controls, respectively. Cells were harvested and centrifuged for 5 minutes at 1600 rpm. Cell pellets were washed once with 1 mL of PBS and fixed with 70% cold ethanol overnight at −20° C. The fixed cells were washed twice with 1 mL of PBS and stained with 250 μL of PI solution (50 μg/mL) containing RNase A (100 μg/mL) for 30 minutes in dark conditions. 250 μL PBS was added to each tube and the cells were analyzed using FACS.

U87 cells = assay: 3D models (hydrogel) of U87 cells: colonies and Alamar Blue viability; conditions: U87 from 3D structures, 48 hours; Doxorubicin 2, F4 20, F4-SM 12.5, F5 16.5, F5-SM 10 μg/ml; control 98.52
Protocol: 3D models—Hydrogels (AGFCH) included Sigma-Aldrich products and were prepared using alginate (W201502; Sigma-Aldrich, USA) 22.5 mg/mL, gelatin (G9764; Bio-Basic, USA) 45 mg/mL, fibrinogen (F38791; Sigma-Aldrich, USA) 50 mg/mL, collagen (C9791; Sigma-Aldrich, USA) 2.2 mg/mL and hyaluronic acid (O8185; Sigma-Aldrich, USA) 2 mg/mL in PBS-glycerol solvent. The gel (AGFCH) was mixed with U87 cells at a concentration of 2×10^6 cells per 400 μL gel. The solutions were mixed gently and transferred as 25 μL of gel solution to a 24-well plate. 3D models were cross-linked using CaCl2 (A610050; Bio-Basic, USA) and thrombin (SRP6557; Sigma-Aldrich, USA) for 5 minutes, following the 3D structure was washed with PBS and then immersed in 1 mL of EMEM complete medium. Cells in the 3D structures were allowed to grow for 2 days and then the indicated treatments were administered for 8 days (treatments were repeated every 2 days). Structures were stained using EasyProbe Hoechst, as described above. To assess cell viability, the 3D structure was digested using 200 μL of 0.05M sodium citrate (C3434; Sigma-Aldrich, USA) and 0.05M EDTA (03-052-1A; Biological Industries, Israel) solution for 5 minutes. […] Percentage of colony in the different treatments was calculated out of average number of colonies in the control.

`COc1cccc2c1C(=O)c1c(O)c3c(c(O)c1C2=O)C[C@@](O)(C(=O)CO)C[C@@H]3O[C@H]1C[C@H](N)[C@H](O)[C@H](C)O1` [Doxorubicin] was tested, and the necrotic cells (A172 cells [1]; methanol control 3.4%) was 23.8%, the cell apoptosis (A172 cells [1]; vehicle control 8.0%) was 60.6% and the “activity on the U87 cell line” value (U87 GBM cells) was “only moderately active on this cell line”. For the same compound, the “percentage of cells in the G2-M phase” value (A172 cells [2]) was 11.6% and the “Mean (% of Live cells)” value (U87 cells) was 37.22 ± 3.08^c %.
